From patent US4897409A, “5-aminoethyloxazolidin-2-one derivatives” (Delalande S.A., priority 1986, dated 1990)

How the values were obtained:
[1] = target: T1, MAO-A of the brain of a rat (Rattus norvegicus, UniProt P21396); experiment: in vitro inhibition of MAO-A, total rat brain homogenate; assay type: biochemical; conditions: preincubation of 60', 1 g of tissue/16 ml phosphate buffer pH 7.4, substrate [14C]5-hydroxytryptamine 480 μM, read-out: IC 50 (A), MAO-A
T1 construct: total rat brain homogenate, with 1 g of tissue/16 ml of phosphate buffer; from tissue; host or cells: rat brain, total homogenate
T1 sequence (P21396 1-526): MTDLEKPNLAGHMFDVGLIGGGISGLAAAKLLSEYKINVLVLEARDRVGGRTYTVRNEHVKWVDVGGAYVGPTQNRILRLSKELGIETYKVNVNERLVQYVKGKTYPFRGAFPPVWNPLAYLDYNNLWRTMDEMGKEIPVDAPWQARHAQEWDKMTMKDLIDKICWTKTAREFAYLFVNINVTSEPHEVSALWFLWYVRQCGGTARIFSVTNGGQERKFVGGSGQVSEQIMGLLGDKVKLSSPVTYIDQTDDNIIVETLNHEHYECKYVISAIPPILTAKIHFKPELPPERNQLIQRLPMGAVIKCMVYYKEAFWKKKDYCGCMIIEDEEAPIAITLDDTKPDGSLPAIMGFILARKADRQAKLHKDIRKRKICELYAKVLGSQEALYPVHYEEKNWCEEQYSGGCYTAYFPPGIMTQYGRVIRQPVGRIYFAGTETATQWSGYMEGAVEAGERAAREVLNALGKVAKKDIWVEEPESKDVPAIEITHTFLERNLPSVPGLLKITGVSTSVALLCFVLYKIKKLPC
Procedure: (§1) This activity has been given prominence by the implementation of the protocol described by P. DOSTERT et al. in J. Pharm. Parmacol., 1983, 35, 161-165; this protocol is based on enzymatic tests carried out with or without preincubation in particular for 60 minutes and it allows measurement in vitro of the inhibiting effect with regard to the MAO-A and the MAO-B of the brain of a rat.
(§2) In Table 4 below are shown the inhibiting concentrations 50 (IC 50) for the A and B forms of MAO, obtained for a number of compounds (I) according to the invention following the above protocol applied to a total rat brain homogenate, with 1 g of tissue/16 ml of phosphate buffer of pH 7.4.
(§3) Substrate concentrations: [^14 C]5hydroxytryptamine = 480 μM,
(§4) [^14 C]phenylethylamine = 12 μM for the study of the inhibition o

[2] = target: T2, MAO-B of the brain of a rat (Rattus norvegicus, UniProt P19643); experiment: in vitro inhibition of MAO-B, total rat brain homogenate; assay type: biochemical; conditions: preincubation of 60'; for ratio IC 50 (A) / IC 50 (B) (head is drawing 22): selectivity MAO-B over MAO-A, 60 min; for IC50: total rat brain homogenate, 1 g of tissue/16 ml phosphate buffer pH 7.4, substrate [14C]phenylethylamine 12 μM, read-out: IC 50 (B), MAO-B
T2 construct: total rat brain homogenate, with 1 g of tissue/16 ml of phosphate buffer; from tissue; host or cells: rat brain, total homogenate
T2 sequence (P19643 1-520): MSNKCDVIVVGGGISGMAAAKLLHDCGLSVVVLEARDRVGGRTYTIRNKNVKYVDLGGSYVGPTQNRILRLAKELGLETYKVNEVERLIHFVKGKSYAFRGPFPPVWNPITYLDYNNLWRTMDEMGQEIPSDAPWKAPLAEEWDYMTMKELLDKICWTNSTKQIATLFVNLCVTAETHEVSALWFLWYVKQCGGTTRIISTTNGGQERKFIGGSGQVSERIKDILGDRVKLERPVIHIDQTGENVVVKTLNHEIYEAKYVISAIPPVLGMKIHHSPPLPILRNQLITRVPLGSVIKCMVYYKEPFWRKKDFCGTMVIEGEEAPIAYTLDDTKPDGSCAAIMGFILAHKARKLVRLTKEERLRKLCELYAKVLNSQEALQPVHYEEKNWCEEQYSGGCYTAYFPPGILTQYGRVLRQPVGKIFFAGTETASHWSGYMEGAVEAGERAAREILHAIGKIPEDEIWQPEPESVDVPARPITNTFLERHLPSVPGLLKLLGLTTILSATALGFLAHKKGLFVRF
Procedure: as §1, §2, §3, §4

| SMILES | IC50 [1] [µM] | ratio IC 50 (A) / IC 50 (B) (head is drawing 22) [2] | IC50 [2] [µM] |
| --- | --- | --- | --- |
| C[C@H]([C@H]1CN(c2ccc(OCc3cccc(Cl)c3)cc2)C(=O)O1)N(C)C (relative stereo) [compound 340748] | 300 | > 15 | 20 |
| COc1cccc(COc2ccc(N3C[C@@H]([C@@H](C)N(C)C)OC3=O)cc2)c1 [compound 340747] | > 1000 | > 67 | 15 |
| CN[C@@H](C)[C@H]1CN(c2ccc(OCc3cccc(Cl)c3)cc2)C(=O)O1 [compound 340271] | 7.43 | 95 | 0.078 |
| C[C@H](N)[C@H]1CN(c2ccc(OCc3cccc(Cl)c3)cc2)C(=O)O1 (relative stereo) [compound 340750] | 210 | 553 | 0.38 |
| C[C@H](N)[C@@H]1CN(c2ccc(OCc3cccc(Cl)c3)cc2)C(=O)O1 [compound 340366] | > 100 | > 61 | 1.64 |
| COc1cccc(COc2ccc(N3C[C@H]([C@H](C)N(C)C)OC3=O)cc2)c1 [compound 340744] | > 1000 | > 4000 | 0.25 |
| COc1cccc(COc2ccc(N3C[C@H]([C@@H](C)N(C)C)OC3=O)cc2)c1 (relative stereo) [compound 340749] | > 30 | > 10 | 300 |
| C[C@@H](N)[C@H]1CN(c2ccc(OCc3cccc(Cl)c3)cc2)C(=O)O1 [compound 340321] | > 100 | > 19 | 5.34 |
| C[C@@H]([C@H]1CN(c2ccc(OCc3cccc(Cl)c3)cc2)C(=O)O1)N(C)C (relative stereo) [compound 340742] | > 1000 | > 6250 | 0.16 |
| CN[C@H](C)[C@H]1CN(c2ccc(OCc3cccc(Cl)c3)cc2)C(=O)O1 [compound 340276] | 148 | 110 | 1.35 |
| C[C@H]([C@@H]1CN(c2ccc(OCc3cccc(Cl)c3)cc2)C(=O)O1)N(C)C [compound 340746] | > 1000 | > 625 | 1.6 |
| CN[C@@H](C)[C@@H]1CN(c2ccc(OCc3cccc(Cl)c3)cc2)C(=O)O1 [compound 340333] | > 100 | > 78 | 1.28 |
| CN[C@@H](C)[C@H]1CN(c2ccc(OCc3cccc(Cl)c3)cc2)C(=O)O1 (relative stereo) [compound 340745] | 15 | 300 | 0.05 |
| C[C@@H]([C@H]1CN(c2ccc(OCc3cccc(Cl)c3)cc2)C(=O)O1)N(C)C [compound 200562, erythro stereoisomer (-) (R, S) of 3-[4-(3-chlorobenzyloxy)phenyl] 5-(1-dimethylaminoethyl) oxazolidin-2-one] | > 100 | > 1887 | 0.053 |
| COc1cccc(COc2ccc(N3C[C@H]([C@H](C)N(C)C)OC3=O)cc2)c1 (relative stereo) [compound 340743] | 1000 | 2500 | 0.4 |
| CN[C@H](C)[C@@H]1CN(c2ccc(OCc3cccc(Cl)c3)cc2)C(=O)O1 [compound 340179] | 18.3 | 16 | 1.16 |
